# pIC50: −log10 of the molar value. The source made the active and inactive calls. The calls are words filed in the database; no cut-off is given here.
# Tested on: U-937
# Assay: Induction of apoptosis in human U937 cells assessed as increase of caspase-9 cleavage at 250 uM after 12 hrs by Western blot analysis
# Format: functional, cell-based
# Conditions: not given
row,SMILES,Activity
1,Cc1cc(=O)oc2c(O)c(O)ccc12 [4-METHYLDAPHNETIN],Active

# Tested on: U-937
# Assay: Induction of apoptosis in human U937 cells assessed as active 11 kDa fragment of caspase-3 at 250 uM after 24 hrs by Western blot analysis
# Format: functional, cell-based
# Conditions: not given
row,SMILES,Activity
1,Cc1cc(=O)oc2cc(O)c(O)cc12 [4-METHYLESCULETIN],Active
2,Cc1cc(=O)oc2c(O)c(O)ccc12 [4-METHYLDAPHNETIN],Active

# Tested on: U-937
# Assay: Induction of apoptosis in human U937 cells assessed as PARP cleavage at 250 uM after 24 hrs by Western blot analysis
# Format: functional, cell-based
# Conditions: not given
row,SMILES,Activity
1,Cc1cc(=O)oc2cc(O)c(O)cc12 [4-METHYLESCULETIN],Active
2,Cc1cc(=O)oc2c(O)c(O)ccc12 [4-METHYLDAPHNETIN],Active

# Tested on: U-937
# Assay: Induction of apoptosis in human U937 cells assessed as activation of caspase-3 at 250 uM after 24 hrs by colorimetric assay
# Format: functional, cell-based
# Conditions: not given
row,SMILES,Activity
1,Cc1cc(=O)oc2cc(O)c(O)cc12 [4-METHYLESCULETIN],Active
2,Cc1cc(=O)oc2c(O)c(O)ccc12 [4-METHYLDAPHNETIN],Active

# Tested on: U-937
# Assay: Induction of apoptosis in human U937 cells assessed as phosphatidylserine expression in plasma membrane at 250 uM after 24 hrs by Annexin V-FITC double staining
# Format: functional, cell-based
# Conditions: not given
row,SMILES,Activity
1,Cc1cc(=O)oc2c(O)c(O)ccc12 [4-METHYLDAPHNETIN],Active

# Tested on: U-937
# Assay: Inhibition of clonogenic activity in human U937 cells assessed as reduction of colony formation in soft agar at 100 to 250 uM after 24 hrs using crystal violet staining
# Format: functional, cell-based
# Conditions: not given
row,SMILES,colony formation inhibition (active/not active)
1,Cc1cc(=O)oc2cc(O)c(O)cc12 [4-METHYLESCULETIN],Active
2,Cc1cc(=O)oc2c(O)c(O)ccc12 [4-METHYLDAPHNETIN],Active

# Tested on: U-937
# Assay: Cell cycle arrest in human U937 cells assessed as accumulation at sub-G0/G1 phase at 250 uM after 24 hrs using propidium iodide staining by FACS analysis
# Format: functional, cell-based
# Conditions: not given
row,SMILES,Activity
1,Cc1cc(=O)oc2cc(O)c(O)cc12 [4-METHYLESCULETIN],Active
2,Cc1cc(=O)oc2c(O)c(O)ccc12 [4-METHYLDAPHNETIN],Active

# Tested on: U-937
# Assay: Cytotoxicity against human U937 cells after 48 hrs by trypan blue assay
# Format: functional
# Conditions: U-937, 48 h
row,SMILES,CC50
1,Cc1cc(=O)oc2cc(O)c(O)cc12 [4-METHYLESCULETIN],76 µM
2,Cc1cc(=O)oc2c(O)c(O)ccc12 [4-METHYLDAPHNETIN],120 µM

# Tested on: U-937
# Assay: Antiproliferative activity against human U937 cells assessed as incorporation of [3H]-methyl-thymidine after 12 hrs by scintillation counting
# Format: functional, cell-based
# Conditions: not given
row,SMILES,pIC50
1,Cc1cc(=O)oc2cc(O)c(O)cc12 [4-METHYLESCULETIN],4.01
2,Cc1cc(=O)oc2c(O)c(O)ccc12 [4-METHYLDAPHNETIN],4.08

# Tested on: U-937
# Assay: Induction of apoptosis in human U937 cells assessed as reduction of normal cells at 250 uM after 24 hrs by Annexin V-FITC double staining
# Format: functional, cell-based
# Conditions: not given
row,SMILES,Activity
1,Cc1cc(=O)oc2cc(O)c(O)cc12 [4-METHYLESCULETIN],Active
2,Cc1cc(=O)oc2c(O)c(O)ccc12 [4-METHYLDAPHNETIN],Active

# Tested on: U-937
# Assay: Induction of DNA damage in human U937 cells
# Format: functional, cell-based
# Conditions: not given
row,SMILES,Activity
1,Cc1cc(=O)oc2c(O)c(O)ccc12 [4-METHYLDAPHNETIN],inactive

# Tested on: Jurkat
# Assay: Cytotoxicity against human Jurkat at 250 uM after 48 hrs by trypan blue assay
# Format: functional, cell-based
# Conditions: not given
row,SMILES,Activity
1,Cc1cc(=O)oc2c(O)c(O)ccc12 [4-METHYLDAPHNETIN],Active

# Tested on: PBMC
# Assay: Cytotoxicity against human PBMC at 250 uM after 48 hrs by trypan blue assay
# Format: cell-based
# Conditions: not given
row,SMILES,Activity
1,Cc1cc(=O)oc2c(O)c(O)ccc12 [4-METHYLDAPHNETIN],Toxic

# Tested on: Jurkat
# Assay: Induction of apoptosis in human Jurkat cells assessed as activation of caspase-3-mediated PARP cleavage at 250 uM after 24 hrs by colorimetric assay
# Format: functional, cell-based
# Conditions: not given
row,SMILES,Activity
1,Cc1cc(=O)oc2c(O)c(O)ccc12 [4-METHYLDAPHNETIN],Active

# Tested on: U-937
# Assay: Pro-oxidant activity in human U937 cells assessed as DCF-DA oxidation at 10 to 250 uM by fluorescence assay
# Format: functional, cell-based
# Conditions: TDE = time-dependent effect
row,SMILES,Activity
1,Cc1cc(=O)oc2c(O)c(O)ccc12 [4-METHYLDAPHNETIN],tde

# Tested on: U-937
# Assay: Pro-oxidant activity in human U937 cells assessed as DCF-DA oxidation up to 6 hrs by fluorescence assay
# Format: functional, cell-based
# Conditions: not given
row,SMILES,Activity
1,Cc1cc(=O)oc2c(O)c(O)ccc12 [4-METHYLDAPHNETIN],Dose-dependent effect

# Tested on: not listed separately
# Assay: Induction of free radicals production in carbonate buffer at pH 9 by electron spin resonance analysis
# Format: physicochemical
# Conditions: not given
row,SMILES,Activity
1,Cc1cc(=O)oc2cc(O)c(O)cc12 [4-METHYLESCULETIN],Active
2,Cc1cc(=O)oc2c(O)c(O)ccc12 [4-METHYLDAPHNETIN],Active

# Tested on: not listed separately
# Assay: Induction of free radicals production in RPMI 1640 medium at pH 7.4 by electron spin resonance analysis
# Format: physicochemical
# Conditions: not given
row,SMILES,Activity
1,Cc1cc(=O)oc2cc(O)c(O)cc12 [4-METHYLESCULETIN],Active
2,Cc1cc(=O)oc2c(O)c(O)ccc12 [4-METHYLDAPHNETIN],Active

# Tested on: not listed separately
# Assay: Pro-oxidant activity in 0.1 M potassium phosphate buffer at pH 7.4 assessed as increase of oxidation potential by cyclic voltammetry analysis
# Format: physicochemical
# Conditions: not given
row,SMILES,Activity
1,Cc1cc(=O)oc2c(O)c(O)ccc12 [4-METHYLDAPHNETIN],Active

# Tested on: U-937
# Assay: Induction of cell differentiation in human U937 cells assessed as increase of rhC5a-induced response at 50 uM after 72 hrs by FACS flow cytometer analysis
# Format: functional, cell-based
# Conditions: not given
row,SMILES,Activity
1,Cc1cc(=O)oc2c(O)c(O)ccc12 [4-METHYLDAPHNETIN],Active

# Tested on: U-937
# Assay: Induction of cell differentiation in human U937 cells assessed as increase of CD88 expression at 50 uM after 72 hrs by FACS flow cytometer analysis
# Format: functional, cell-based
# Conditions: not given
row,SMILES,Activity
1,Cc1cc(=O)oc2c(O)c(O)ccc12 [4-METHYLDAPHNETIN],Active

# Tested on: U-937
# Assay: Induction of cell differentiation in human U937 cells assessed as increase of CD11b and CD14 expression at 50 uM after 72 hrs by FACS flow cytometer analysis
# Format: functional, cell-based
# Conditions: not given
row,SMILES,Activity
1,Cc1cc(=O)oc2c(O)c(O)ccc12 [4-METHYLDAPHNETIN],Active

# Tested on: U-937
# Assay: Induction of apoptosis in human U937 cells assessed as activation of caspase-3 at 250 uM after 24 hrs by colorimetric assay in presence of caspase-8 inhibitor Z-LETD-FMK
# Format: functional, cell-based
# Conditions: not given
row,SMILES,Activity
1,Cc1cc(=O)oc2c(O)c(O)ccc12 [4-METHYLDAPHNETIN],Active

# Tested on: U-937
# Assay: Induction of apoptosis in human U937 cells assessed as increase of caspase-8 cleavage at 250 uM after 12 hrs by Western blot analysis
# Format: functional, cell-based
# Conditions: not given
row,SMILES,Activity
1,Cc1cc(=O)oc2c(O)c(O)ccc12 [4-METHYLDAPHNETIN],inactive

# Tested on: U-937
# Assay: Induction of apoptosis in human U937 cells assessed as activation of caspase-3 at 250 uM after 24 hrs by colorimetric assay in presence of caspase-9 inhibitor Z-LEHD-FMK
# Format: functional, cell-based
# Conditions: not given
row,SMILES,Activity
1,Cc1cc(=O)oc2c(O)c(O)ccc12 [4-METHYLDAPHNETIN],inactive

# Tested on: U-937
# Assay: Induction of apoptosis in human U937 cells assessed as increase of caspase-9 cleavage at 250 uM by Western blot analysis
# Format: functional, cell-based
# Conditions: TDE = time-dependent effect
row,SMILES,Activity
1,Cc1cc(=O)oc2c(O)c(O)ccc12 [4-METHYLDAPHNETIN],tde

# Source: ChEMBL document CHEMBL2202983, “Structure-anti-leukemic activity relationship study of ortho-dihydroxycoumarins in U-937 cells: key role of the δ-lactone ring in determining differentiation-inducing potency and selective pro-apoptotic action” (Bioorg Med Chem, 2012)
